Source: PubChem BioAssay (NCI)
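GI50 = concentration required for 50% inhibition of growth. TGI: concentration producing complete growth inhibition.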

Columns and labels:
Assay in all cases: NCI-60 cell line screen, 384-well format
786-0 renal = tested on: 786-0 renal
A498 renal = tested on: A498 renal
A549 NSCLC = tested on: A549 NSCLC
ACHN renal = tested on: ACHN renal
BT-549 breast = tested on: BT-549 breast
CAKI-1 renal = tested on: CAKI-1 renal
CCRF-CEM leukemia = tested on: CCRF-CEM leukemia
COLO 205 colon = tested on: COLO 205 colon
DU-145 prostate = tested on: DU-145 prostate
EKVX NSCLC = tested on: EKVX NSCLC
HCC-2998 colon = tested on: HCC-2998 colon
HCT-116 colon = tested on: HCT-116 colon
HCT-15 colon = tested on: HCT-15 colon
HL-60(TB) leukemia = tested on: HL-60(TB) leukemia
HOP-62 NSCLC = tested on: HOP-62 NSCLC
HOP-92 NSCLC = tested on: HOP-92 NSCLC
HS 578T breast = tested on: HS 578T breast
HT29 colon = tested on: HT29 colon
IGROV1 ovarian = tested on: IGROV1 ovarian
K-562 leukemia = tested on: K-562 leukemia
KM12 colon = tested on: KM12 colon
LOX IMVI melanoma = tested on: LOX IMVI melanoma
M14 melanoma = tested on: M14 melanoma
MALME-3M melanoma = tested on: MALME-3M melanoma
MCF7 breast = tested on: MCF7 breast
MDA-MB-231 breast = tested on: MDA-MB-231 breast
MDA-MB-435 melanoma = tested on: MDA-MB-435 melanoma
MDA-MB-468 breast = tested on: MDA-MB-468 breast
MOLT-4 leukemia = tested on: MOLT-4 leukemia
NCI-H226 lung = tested on: NCI-H226 lung
NCI-H23 lung = tested on: NCI-H23 lung
NCI-H322M lung = tested on: NCI-H322M lung
NCI-H460 NSCLC = tested on: NCI-H460 NSCLC
NCI-H522 lung = tested on: NCI-H522 lung
NCI/ADR-RES ovarian = tested on: NCI/ADR-RES ovarian
OVCAR-3 ovarian = tested on: OVCAR-3 ovarian
OVCAR-4 ovarian = tested on: OVCAR-4 ovarian
OVCAR-5 ovarian = tested on: OVCAR-5 ovarian
PC-3 prostate = tested on: PC-3 prostate
RPMI-8226 leukemia = tested on: RPMI-8226 leukemia
RXF 393 renal = tested on: RXF 393 renal
SF-268 CNS = tested on: SF-268 CNS
SF-295 CNS = tested on: SF-295 CNS
SF-539 CNS = tested on: SF-539 CNS
SK-MEL-2 melanoma = tested on: SK-MEL-2 melanoma
SK-MEL-28 melanoma = tested on: SK-MEL-28 melanoma
SK-MEL-5 melanoma = tested on: SK-MEL-5 melanoma
SK-OV-3 ovarian = tested on: SK-OV-3 ovarian
SN12C renal = tested on: SN12C renal
SNB-19 CNS = tested on: SNB-19 CNS
SNB-75 CNS = tested on: SNB-75 CNS
SR leukemia = tested on: SR leukemia
SW-620 colon = tested on: SW-620 colon
T-47D breast = tested on: T-47D breast
TK-10 renal = tested on: TK-10 renal
U251 glioblastoma = tested on: U251 glioblastoma
UACC-257 melanoma = tested on: UACC-257 melanoma
UACC-62 melanoma = tested on: UACC-62 melanoma
UO-31 renal = tested on: UO-31 renal

CC1(C)CNc2cc(NC(=O)c3cccnc3NCc3ccncc3)ccc21
GI50 ([…]-0 renal): 35.8 µM | TGI (786-0 renal): > 100 µM | GI50 (A498 renal): 25.6 µM | TGI (A498 renal): > 100 µM | GI50 (A549 NSCLC): 31.2 µM | TGI (A549 NSCLC): > 100 µM | GI50 (ACHN renal): 10.7 µM | TGI (ACHN renal): 64.5 µM | GI50 (BT-549 breast): 26.1 µM | TGI (BT-549 breast): 65.5 µM | GI50 (CAKI-1 renal): 19.4 µM | TGI (CAKI-1 renal): > 100 µM | GI50 (CCRF-CEM leukemia): 12.7 µM | TGI (CCRF-CEM leukemia): 27.6 µM | GI50 (COLO 205 colon): 31.6 µM | TGI (COLO 205 colon): > 100 µM | GI50 (DU-145 prostate): 21.3 µM | TGI (DU-145 prostate): > 100 µM | GI50 (EKVX NSCLC): 17.9 µM | TGI (EKVX NSCLC): 48.6 µM | GI50 (HCC-2998 colon): 38 µM | TGI (HCC-2998 colon): > 100 µM | GI50 (HCT-116 colon): 46.7 µM | TGI (HCT-116 colon): > 100 µM | GI50 (HCT-15 colon): 16.6 µM | TGI (HCT-15 colon): 44.7 µM | GI50 (HL-60(TB) leukemia): 25.5 µM | TGI (HL-60(TB) leukemia): 42.4 µM | GI50 (HOP-62 NSCLC): 70.9 µM | TGI (HOP-62 NSCLC): > 100 µM | GI50 (HOP-92 NSCLC): 21.1 µM | TGI (HOP-92 NSCLC): 83.3 µM | GI50 (HS 578T breast): 15.8 µM | TGI (HS 578T breast): 40.5 µM | GI50 (HT29 colon): 24.6 µM | TGI (HT29 colon): 66.8 µM | GI50 (IGROV1 ovarian): 12.5 µM | TGI (IGROV1 ovarian): 40.3 µM | GI50 (K-562 leukemia): 12.7 µM | TGI (K-562 leukemia): 52.5 µM | GI50 (KM12 colon): 38.8 µM | TGI (KM12 colon): > 100 µM | GI50 (LOX IMVI melanoma): 24.9 µM | TGI (LOX IMVI melanoma): 52.5 µM | GI50 (M14 melanoma): 24.9 µM | TGI (M14 melanoma): > 100 µM | GI50 (MALME-3M melanoma): 20.1 µM | TGI (MALME-3M melanoma): 66.5 µM | GI50 (MCF7 breast): 23.3 µM | TGI (MCF7 breast): > 100 µM | GI50 (MDA-MB-231 breast): 24.5 µM | TGI (MDA-MB-231 breast): 82 µM | GI50 (MDA-MB-435 melanoma): 29.4 µM | TGI (MDA-MB-435 melanoma): 98.4 µM | GI50 (MDA-MB-468 breast): 9.35 µM | TGI (MDA-MB-468 breast): 25.1 µM | GI50 (MOLT-4 leukemia): 12.7 µM | TGI (MOLT-4 leukemia): 26.5 µM | GI50 (NCI-H226 lung): 9.96 µM | TGI (NCI-H226 lung): 31.4 µM | GI50 (NCI-H23 lung): 25.8 µM | TGI (NCI-H23 lung): 82.9 µM | GI50 (NCI-H322M lung): 33.4 µM | TGI (NCI-H322M lung): > 100 µM | GI50 (NCI-H460 NSCLC): 25.1 µM | TGI (NCI-H460 NSCLC): > 100 µM | GI50 (NCI-H522 lung): 20.4 µM | TGI (NCI-H522 lung): 50.2 µM | GI50 (NCI/ADR-RES ovarian): 17.8 µM | TGI (NCI/ADR-RES ovarian): 42.7 µM | GI50 (OVCAR-3 ovarian): 14.8 µM | TGI (OVCAR-3 ovarian): 40.6 µM | GI50 (OVCAR-4 ovarian): 13.7 µM | TGI (OVCAR-4 ovarian): 60.6 µM | GI50 (OVCAR-5 ovarian): 52.9 µM | TGI (OVCAR-5 ovarian): > 100 µM | GI50 (PC-3 prostate): 43.2 µM | TGI (PC-3 prostate): > 100 µM | GI50 (RPMI-8226 leukemia): 16 µM | TGI (RPMI-8226 leukemia): 41.6 µM | GI50 (RXF 393 renal): 11 µM | TGI (RXF 393 renal): 29.6 µM | GI50 (SF-268 CNS): 25.2 µM | TGI (SF-268 CNS): 88.9 µM | GI50 (SF-295 CNS): 35.7 µM | TGI (SF-295 CNS): > 100 µM | GI50 (SF-539 CNS): 14.3 µM | TGI (SF-539 CNS): > 100 µM | GI50 (SK-MEL-2 melanoma): 39.2 µM | TGI (SK-MEL-2 melanoma): 58.3 µM | GI50 (SK-MEL-28 melanoma): 37.8 µM | TGI (SK-MEL-28 melanoma): > 100 µM | GI50 (SK-MEL-5 melanoma): 13.1 µM | TGI (SK-MEL-5 melanoma): 28.3 µM | GI50 (SK-OV-3 ovarian): 18.6 µM | TGI (SK-OV-3 ovarian): 61.4 µM | GI50 (SN12C renal): 30.4 µM | TGI (SN12C renal): > 100 µM | GI50 (SNB-19 CNS): 44.8 µM | TGI (SNB-19 CNS): > 100 µM | GI50 (SNB-75 CNS): 22.1 µM | TGI (SNB-75 CNS): 80.9 µM | GI50 (SR leukemia): 11.4 µM | TGI (SR leukemia): 24.3 µM | GI50 (SW-620 colon): 49.6 µM | TGI (SW-620 colon): > 100 µM | GI50 (T-47D breast): 14.9 µM | TGI (T-47D breast): 47.3 µM | GI50 (TK-10 renal): 14.2 µM | TGI (TK-10 renal): > 100 µM | GI50 (U251 glioblastoma): 46 µM | TGI (U251 glioblastoma): > 100 µM | GI50 (UACC-257 melanoma): 30.9 µM | TGI (UACC-257 melanoma): > 100 µM | GI50 (UACC-62 melanoma): 19.1 µM | TGI (UACC-62 melanoma): 97.7 µM | GI50 (UO-31 renal): 25 µM | TGI (UO-31 renal): 85.5 µM
